Reference: patent publication US11819569B2, “Treating inflammation with inhaled aspirin” (VECTURA INC., priority 2013, dated 2023)
Read-outs that look alike come from different tables or passages of the source.

Legend:
[1] = cited from earlier work
[2] = Pharmacokinetic studies after oral administration of ASA (cited Dressman et al.); conditions: extrapolated from linear pharmacokinetics, dose not stated
[3] = oral solution of 650 mg, four male subjects; cited from earlier work
[4] = cited from earlier work; remark: listed apart in the source
[5] = cited from earlier work; remark: listed apart in the source
[6] = metabolite after oral administration of ASA
[7] = after oral administration of ASA

expected peak circulating plasma level [2] | Structure (SMILES) | elimination half-life [1, 6] | period over which plasma levels increase following administration of ASA [1, 6] | share of the dose that reached the peripheral circulation intact (AUC oral vs intravenous) [3] | elimination half-life [1, 7] | time to peak plasma levels [1, 7] | pharmacokinetic behavior over dosage range ([1]; dosage range from 30-400 mg) | loss or inactivation of the oral dosage due to the first pass effect in the gut and liver ([4]; oral administration) | fraction of the oral dose that is bioavailable ([4]; taken orally, first pass effect) | vascular events prevented ([5]; Dutch TIA Study, any dose above 30 mg daily, oral) | increase of major gastrointestinal and extracranial bleeds ([5]; oral aspirin, studies used dosages of 325 mg)
~10 µg/mL | O=C(O)c1ccccc1O [salicylate, salicylic acid] | 2 to 3 h | about 45 minutes | – | – | – | – | – | – | – | –
– | CC(=O)Oc1ccccc1C(=O)O [aspirin, acetylsalicylic acid] | – | – | 68% | 0.25 to 0.333 h | about 20 minutes | linear | approximately ⅔ | about one to two-thirds | 13% | over 50%
